System: Pseudomonas aeruginosa
Test: agar bead model of rat chronic respiratory infection (quantitative lung pathology, histopathology)
Assay type: in vivo
Settings: 7 days post-infection
Description: The following Examples illustrate the effect of normal flora and the presence of autoinducer-2 (AI-2) on Pseudomonas aeruginosa infection in the agar bead model of rat chronic respiratory infection. Groups of 15 rats (male Sprague-Dawley 180-200 grams) were inoculated intratracheally with 0.05 mL suspensions of bacteria embedded in agar beads. Seven days post-infection each group was treated as follows: (1) five rats—lungs removed for quantitative microbiology; (2) five rats—bronchoaveolar lavage (BAL) were obtained and analyzed for total cell counts, neutrophils, neutrophil elastase and AI-2 activity; and (3) five rats—lungs removed for histology (quantitative pathology). In the microphotographs shown in FIGS. 4-7, the dark areas indicate regions of consolidation, an indication of tissue damage. An α-hemolytic Streptococcus isolate (designated CFX5) from a cystic fibrosis patient was used to supply naturally synthesized AI-2 in vivo.
Rats inoculated with agar beads containing Pseudomonas aeruginosa alone yielded the quantitative pathology shown in FIG. 3 (PAO), and the histopathology shown in the microphotograph of FIG. 4
Rats inoculated with agar beads containing Pseudomonas aeruginosa alone and exposed to synthetic AI-2 yielded the quantitative pathology shown in FIG. 3 (PAO/AI-2), and the histopathology shown in FIG. 5.
Rats inoculated with agar beads containing Pseudomonas aeruginosa +α-hemolytic Streptococcus (CFX5) yielded the quantitative pathology shown in FIG. 3 (PAO/NF), and the histopathology shown in FIG. 6.
Rats inoculated with agar beads containing Pseudomonas aeruginosa +α-hemolytic Streptococcus (CFX5), treated daily for six days with aerosolized QXO18 (2-pentyl-2-cyclopenten-1-one), an AI-2 antagonist, yielded the quantitative pathology shown in FIG. 3 (PAO/NF/QXO18), and the histopathology shown in FIG. 7.

Molecule	lung pathology caused by Pseudomonas aeruginosa (percent of lung tissue showing consolidation) (Pseudomonas aeruginosa + α-hemolytic Streptococcus (CFX5), treated daily for six days with aerosolized compound, PAO/NF/QXO18 vs PAO/NF)	lung pathology caused by Pseudomonas aeruginosa (percent of lung tissue showing consolidation) (AI-2 supplied endogenously by co-infecting α-hemolytic Streptococcus isolate CFX5, PAO/NF)	lung pathology caused by Pseudomonas aeruginosa (percent of lung tissue showing consolidation) (rats inoculated with Pseudomonas aeruginosa alone, exposed to synthetic (exogenously supplied) AI-2, PAO/AI-2 vs PAO)
CCCCCC1=CCCC1=O [2-pentyl-2-cyclopenten-1-one]	greatly diminishes the increased lung pathology		
autoinducer-2 [AI-2]		increases the lung pathology even more	increases the lung pathology

From patent publication US20030022932A1, “Methods for regulating bacteria” (priority 2001, published 2003)
